Laboratory results taken from US6743794B2, “Methods and compounds for inhibiting MRP1” (Eli Lilly and Company, priority 1999, dated 2004).

How the values were obtained:
[1] = biological target: T1, MRP1 (Homo sapiens, UniProt P33527); test: Assay for reversal of MRP1-mediated doxorubicin resistance (HL60/Adr cells, alamarBlue viability); format: cell-based; settings: oncolytic alone at the tested concentration, no test compound
T1 construct: HL60/Adr and HL60/Vinc are continuous cell lines, which were selected for doxorubicin and vincristine resistance respectively; endogenous in cells; host or cells: HL60/Adr (doxorubicin-selected HL60)
T1 sequence (P33527 whole entry): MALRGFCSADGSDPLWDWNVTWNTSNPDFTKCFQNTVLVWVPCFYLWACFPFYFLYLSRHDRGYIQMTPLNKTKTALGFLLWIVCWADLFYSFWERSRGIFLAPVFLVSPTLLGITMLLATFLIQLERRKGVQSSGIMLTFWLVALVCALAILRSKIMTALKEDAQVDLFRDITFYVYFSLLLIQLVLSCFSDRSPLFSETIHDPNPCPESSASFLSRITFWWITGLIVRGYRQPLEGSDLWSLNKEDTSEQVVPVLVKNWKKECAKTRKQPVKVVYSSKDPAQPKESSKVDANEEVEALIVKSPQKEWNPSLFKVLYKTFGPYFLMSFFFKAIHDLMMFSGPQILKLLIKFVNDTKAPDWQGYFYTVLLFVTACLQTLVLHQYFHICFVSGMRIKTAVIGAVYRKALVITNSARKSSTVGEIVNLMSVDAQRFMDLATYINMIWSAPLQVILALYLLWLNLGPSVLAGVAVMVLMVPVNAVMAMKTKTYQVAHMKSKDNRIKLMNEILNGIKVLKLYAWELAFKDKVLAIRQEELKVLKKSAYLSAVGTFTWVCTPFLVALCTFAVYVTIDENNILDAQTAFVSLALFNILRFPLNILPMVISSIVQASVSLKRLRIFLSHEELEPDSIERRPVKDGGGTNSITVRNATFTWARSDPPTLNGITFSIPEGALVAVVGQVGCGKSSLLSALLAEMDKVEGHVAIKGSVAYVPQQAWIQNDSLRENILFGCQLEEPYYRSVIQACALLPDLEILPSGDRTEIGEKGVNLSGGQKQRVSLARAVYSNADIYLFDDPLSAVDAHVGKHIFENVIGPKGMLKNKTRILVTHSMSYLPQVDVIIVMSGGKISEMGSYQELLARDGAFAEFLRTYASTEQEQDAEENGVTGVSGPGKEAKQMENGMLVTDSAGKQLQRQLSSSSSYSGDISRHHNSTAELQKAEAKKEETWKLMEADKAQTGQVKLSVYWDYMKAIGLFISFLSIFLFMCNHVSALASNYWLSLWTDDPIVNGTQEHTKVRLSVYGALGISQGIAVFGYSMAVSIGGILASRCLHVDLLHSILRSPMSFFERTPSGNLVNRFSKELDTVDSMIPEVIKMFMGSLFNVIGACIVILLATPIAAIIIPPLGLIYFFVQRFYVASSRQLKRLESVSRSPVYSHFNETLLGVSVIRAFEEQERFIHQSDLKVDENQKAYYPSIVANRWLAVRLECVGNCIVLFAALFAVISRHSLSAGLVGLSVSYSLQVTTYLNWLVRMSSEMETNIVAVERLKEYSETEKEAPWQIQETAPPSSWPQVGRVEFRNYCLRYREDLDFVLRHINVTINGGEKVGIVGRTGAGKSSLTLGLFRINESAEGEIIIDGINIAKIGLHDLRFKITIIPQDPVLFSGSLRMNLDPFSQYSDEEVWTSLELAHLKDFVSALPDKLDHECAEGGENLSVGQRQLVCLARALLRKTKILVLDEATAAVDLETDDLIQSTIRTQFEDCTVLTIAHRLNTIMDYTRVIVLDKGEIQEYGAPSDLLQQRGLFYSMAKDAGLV
Protocol: (§1) The biological activity of the compounds of the present invention was evaluated employing an initial screening assay which rapidly and accurately measured the activity of the tested compound in inhibiting MRP1 or MDR1. Assays useful for evaluating this reversing capability are well known in the art. See, e.g., T. McGrath, et al., Biochemical Pharmacology, 38:3611, 1989; D. Marquardt and M. S. Center, Cancer Research, 52:3157, 1992; D. Marquardt, et al., Cancer Research, 50:1426, 1990; and Cole, et. al., Cancer Research, 54: 5902-5910, 1994.
(§2) Assay for Reversal of MRP1-Mediated Doxorubicin Resistance and MDR1-Mediated Vincristine Resistance
(§3) HL60/Adr and HL60/Vinc are continuous cell lines, which were selected for doxorubicin and vincristine resistance respectively by culturing HL60, a human acute myeloblastic leukemia cell line, in increasing concentrations of doxorubicin or vincristine until a highly resistant variant was attained.
(§4) HL60/Adr and HL60/Vinc cells were grown in RPMI 1640 (Gibco) containing 10% fetal bovine serum (FBS) and 50 μg/ml GENTAMICIN™ (Sigma). Cells were harvested; washed twice with assay medium (same as culture media); counted; and diluted to 1×10^5 cells/ml in assay medium. One hundred microliters of cells were aliquoted into wells of a 96 well tissue culture plate. […]

[2] = biological target: T2, MDR1 (Homo sapiens, UniProt P08183); test: Assay for reversal of MDR1-mediated vincristine resistance (HL60/Vinc cells, alamarBlue viability); format: cell-based; settings: oncolytic alone at the tested concentration, no test compound
T2 construct: HL60/Adr and HL60/Vinc are continuous cell lines, which were selected for doxorubicin and vincristine resistance respectively; endogenous in cells; host or cells: HL60/Vinc (vincristine-selected HL60)
T2 sequence (P08183 whole entry): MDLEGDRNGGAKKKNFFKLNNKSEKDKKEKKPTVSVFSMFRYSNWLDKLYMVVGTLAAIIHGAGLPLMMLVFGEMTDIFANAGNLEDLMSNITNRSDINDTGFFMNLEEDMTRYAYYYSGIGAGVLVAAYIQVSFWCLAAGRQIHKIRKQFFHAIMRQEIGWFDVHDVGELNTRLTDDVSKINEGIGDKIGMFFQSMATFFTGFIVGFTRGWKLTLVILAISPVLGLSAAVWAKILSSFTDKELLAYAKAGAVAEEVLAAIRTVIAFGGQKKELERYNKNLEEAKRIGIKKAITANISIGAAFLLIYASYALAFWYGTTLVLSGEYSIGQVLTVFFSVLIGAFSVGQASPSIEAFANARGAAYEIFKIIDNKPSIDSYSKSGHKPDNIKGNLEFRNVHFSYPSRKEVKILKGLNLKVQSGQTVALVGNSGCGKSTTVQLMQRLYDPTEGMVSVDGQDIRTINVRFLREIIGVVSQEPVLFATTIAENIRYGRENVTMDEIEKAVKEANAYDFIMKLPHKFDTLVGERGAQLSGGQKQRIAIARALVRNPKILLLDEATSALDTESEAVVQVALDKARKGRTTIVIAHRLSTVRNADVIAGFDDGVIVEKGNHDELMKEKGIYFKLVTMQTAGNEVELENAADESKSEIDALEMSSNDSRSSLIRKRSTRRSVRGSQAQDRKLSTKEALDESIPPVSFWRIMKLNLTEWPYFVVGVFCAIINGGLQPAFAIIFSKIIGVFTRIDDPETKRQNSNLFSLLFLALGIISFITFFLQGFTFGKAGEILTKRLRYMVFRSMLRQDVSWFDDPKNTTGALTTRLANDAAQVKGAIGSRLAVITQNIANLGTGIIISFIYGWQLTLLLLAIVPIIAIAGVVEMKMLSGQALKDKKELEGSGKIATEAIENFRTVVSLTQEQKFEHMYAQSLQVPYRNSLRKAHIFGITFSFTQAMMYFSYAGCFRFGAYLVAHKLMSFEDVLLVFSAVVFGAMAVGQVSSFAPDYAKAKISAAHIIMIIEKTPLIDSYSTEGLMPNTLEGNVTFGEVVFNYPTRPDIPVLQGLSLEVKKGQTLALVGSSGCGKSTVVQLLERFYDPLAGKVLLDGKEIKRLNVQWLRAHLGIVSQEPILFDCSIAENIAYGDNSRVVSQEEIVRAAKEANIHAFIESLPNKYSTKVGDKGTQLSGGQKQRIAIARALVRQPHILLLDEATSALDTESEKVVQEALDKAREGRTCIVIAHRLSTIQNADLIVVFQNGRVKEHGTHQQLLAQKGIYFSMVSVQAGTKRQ
Protocol: as §1, §2, §3, §4

COc1cccc2c1C(=O)c1c(O)c3c(c(O)c1C2=O)C[C@@](O)(C(=O)CO)C[C@@H]3O[C@H]1C[C@H](N)[C@H](O)[C@H](C)O1 [doxorubicin]
inhibition of cell growth by the oncolytic alone [1]: minimally inhibits
inhibition of cell growth by the oncolytic alone [2]: minimally inhibits
